The text below walks through data of US20060100431A1, “Biologically active compounds” (Amura Therapeutics Limited, priority 2002, published 2006).

pKi: −log10 of the molar value. Bounds are passed on as bounds.

In this test the target is Wild-type cruzipain (Trypanosoma cruzi, UniProt P25779). Put plainly: Trypanosoma cruzi cruzipain peptidase activity assay (Ki). It is filed as biochemical. The conditions noted are these: read-out: Ki, inhibitors of cruzain and cruzipains. The method, then: Unless otherwise stated, all general chemicals and biochemicals were purchased from either the Sigma Chemical Company, Poole, Dorset, U.K or from Fisher Scientific UK, Loughborough, Leicestershire, U.K. Absorbance assays were carried out in flat-bottomed 96-well plates (Spectra; Greiner Bio-One Ltd., Stonehouse, Gloucestershire, U.K.) using a SpectraMax PLUS384 plate reader (Molecular Devices, Crawley, U.K.). Fluorescence high throughput assays were carried out in either 384-well microtitre plates (Corning Costar 3705 plates, Fisher Scientific) or 96-well ‘U’ bottomed Microfluor W1 microtitre plates (Thermo Labsystems, Ashford, Middlesex, U.K.). Fluorescence assays were monitored using a SpectraMax Gemini fluorescence plate reader (Molecular Devices). For substrates employing either a 7-amino-4-methylcoumarin (AMC) or a 7-amino-4-trifluoromethylcoumarin (AFC) fluorophore, assays were monitored at an excitation wavelength of 365 nm and an emission wavelength of 450 nm and the fluorescence plate reader calibrated with AMC. For substrates employing a 3-amino-benzoyl (Abz) fluorophore, assays were monitored at an excitation wavelength of 310 nm and an emission wavelength of 445 nm; the fluorescence plate reader calibrated with 3-amino-benzamide (Fluka). Unless otherwise indicated, all the peptidase substrates were purchased from Bachem UK, St Helens, Merseyside, UK. Substrates utilizing fluorescence resonance energy transfer methodology (i.e. FRET-based substrates) were synthesized at Incenta Limited using published methods (Atherton & Sheppard, Solid Phase Peptide Synthesis, IRL Press, Oxford, U.K, 1989) and employed Abz (2-aminobenzoyl) as the fluorescence donor and 3-nitro-tyrosine [Tyr(NO2)] as the fluorescence quencher (Meldal, M. and Breddam, K., Anal. Biochem, 195, 141-147, 1991). Hydroxyethylpiperazine ethanesulfonate (HEPES), tris-hydroxylmethyl aminomethane (tris) base, bis-tris-propane and all the biological detergents (e.g. CHAPS, zwittergents, etc.) were purchased from CN Biosciences UK, Beeston, Nottinghamshire, U.K. Glycerol was purchased from Amersham Pharmacia Biotech, Little Chalfont, Buckinghamshire, U.K. Stock solutions of substrate or inhibitor were made up to 10 mM in 100% dimethylsulfoxide (DMSO) (Rathburns, Glasgow, U.K.) and diluted as appropriately required. In all cases the DMSO concentration in the assays was maintained at less than 1% (vol./vol.).
Chain of Wild-type cruzipain (P25779 whole entry): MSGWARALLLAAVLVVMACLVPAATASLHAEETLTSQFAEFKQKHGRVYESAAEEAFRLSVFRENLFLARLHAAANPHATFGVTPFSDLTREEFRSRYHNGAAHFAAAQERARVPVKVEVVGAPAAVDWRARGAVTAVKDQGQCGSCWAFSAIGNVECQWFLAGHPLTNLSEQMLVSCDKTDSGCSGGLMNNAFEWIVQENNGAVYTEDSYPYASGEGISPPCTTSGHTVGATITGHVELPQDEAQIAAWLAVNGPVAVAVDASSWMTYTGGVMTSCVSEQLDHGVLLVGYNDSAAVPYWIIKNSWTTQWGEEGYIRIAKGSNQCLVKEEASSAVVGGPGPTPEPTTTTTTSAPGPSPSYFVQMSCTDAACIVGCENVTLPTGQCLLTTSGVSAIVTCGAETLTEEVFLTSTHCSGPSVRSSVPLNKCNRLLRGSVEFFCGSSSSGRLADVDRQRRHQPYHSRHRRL
Assay protocols were based on literature precedent (Table 4; Barrett, A. J., Rawlings, N. D. and Woessner, J. F., 1998, Handbook of Proteolytic Enzymes, Academic Press, London and references therein) and modified as required to suit local assay protocols. Enzyme was added as required to initiate the reaction and the activity, as judged by the change in fluorescence upon conversion of substrate to product, was monitored over time. All assays were carried out at 25±1° C.
Wild-type cruzipain, derived from Trypanosoma cruzi Dm28 epimastigotes, was obtained from Dr. Julio Scharfstein (Instituto de Biofisica Carlos Chagas Filho, Universidade Federal do Rio de Janeiro, Rio de Janeiro, Brazil). Activity assays were carried out in 100 mM sodium phosphate, pH 6.75 containing 1 mM EDTA and 10 mM L-cysteine using 2.5 nM enzyme. […] The rate of conversion of substrate to product was derived from the slope of the increase in fluorescence monitored continuously over time.
The apparent inhibition constant (Ki) for each compound was determined on the basis that inhibition was reversible and occurred by a pure-competitive mechanism. The Ki values were calculated, from the dependence of enzyme activity as a function of inhibitor concentration, by direct regression analysis (Prism v 3.02) using Equation 2 (Cornish-Bowden, A., 1995.). [formula]
With `CC(C)C[C@H](NC(=O)c1ccc(C(C)(C)C)cc1)C(=O)N1CC[C@@H]2[C@H]1C(=O)CN2C(=O)c1ccc2c(c1)OCCO2` [Example 30, (3aR,6aS)-4-tert-Butyl-N-{(1S)-1-[4-(2,3-dihydro-benzo[1,4]dioxine-6-carbonyl)-6-oxo-hexahydro-pyrrolo[3,2-b]pyrrole-1-carbonyl]-3-methyl-butyl}-benzamide], the pKi (in general, the Ki on a negative log10 scale, so that one unit is a factor of ten) is above 5.30.
Regarding `CC[C@H](N)C(=O)N1CC(=O)[C@@H]2[C@H]1CCN2C(=O)[C@H](CC(C)C)NC(=O)c1ccc(N(C)C)cc1` [Example 203, (3aR,6aS)-N-{(1S)-1-[4-((2S)-2-Amino-butyryl)-6-oxo-hexahydro-pyrrolo[3,2-b]pyrrole-1-carbonyl]-3-methyl-butyl}-4-dimethylamino-benzamide], the negative-log Ki (pKi) was above 5.30.
For `COc1cccc(C(=O)N[C@@H](Cc2ccc(O)cc2)C(=O)N2CC[C@@H]3[C@H]2C(=O)CN3C(=O)c2ccccc2)c1` [Example 338, (3aR,6aS)-N-[(1S)-2-(4-Benzoyl-6-oxo-hexahydro-pyrrolo[3,2-b]pyrrol-1-yl)-1-(4-hydroxy-benzyl)-2-oxo-ethyl]-3-methoxy-benzamide] the value was above 5.30; for `CC(C)C[C@H](NC(=O)c1ccc(N(C)C)cc1)C(=O)N1CC[C@@H]2[C@H]1C(=O)CN2C(=O)[C@H]1CCCN1` [Example 157, (3aR,6aS)-4-Dimethylamino-N-{(1S)-3-methyl-1-[6-oxo-4-((2R)-pyrrolidine-2-carbonyl)-hexahydro-pyrrolo[3,2-b]pyrrole-1-carbonyl]-butyl}-benzamide], above 5.30.
For the molecule `CN(C)c1ccc(C(=O)N[C@@H](Cc2ccc(O)cc2)C(=O)N2CC[C@@H]3[C@H]2C(=O)CN3C(=O)c2cccc([N+](=O)[O-])c2)cc1` [Example 321, (3aR,6aS)-4-Dimethylamino-N-{(1S)-1-(4-hydroxy-benzyl)-2-[4-(3-nitro-benzoyl)-6-oxo-hexahydro-pyrrolo[3,2-b]pyrrole-1-yl]-2-oxo-ethyl}-benzamide], the pKi is above 5.30.
The figure for `O=C(N[C@@H](Cc1ccc(O)cc1)C(=O)N1CC[C@@H]2[C@H]1C(=O)CN2C(=O)c1ccccc1)c1cccc(OC(F)(F)F)c1` [Example 339, (3aR,6aS)-N-[(1S)-2-(4-Benzoyl-6-oxo-hexahydro-pyrrolo[3,2-b]pyrrol-1-yl)-1-(4-hydroxy-benzyl)-2-oxo-ethyl]-3-trifluoromethoxy-benzamide] is above 5.30.
The figure for `CC(=O)NCC(=O)N1CC(=O)[C@@H]2[C@H]1CCN2C(=O)[C@H](CC(C)C)NC(=O)c1ccc(N(C)C)cc1` [Example 199, (3aR,6aS)-N-{(1S)-1-[4-(2-Acetylamino-acetyl)-6-oxo-hexahydro-pyrrolo[3,2-b]pyrrole-1-carbonyl]-3-methyl-butyl}-4-dimethylamino-benzamide] is above 5.30; for `Cc1ccc(C(=O)N2CC(=O)[C@@H]3[C@H]2CCN3C(=O)[C@H](CC(C)C)NC(=O)c2ccc(N(C)C)cc2)cc1` [Example 55, (3aR,6aS)-4-Dimethylamino-N-{(1S)-3-methyl-1-[4-(4-methyl-benzoyl)-6-oxo-hexahydro-pyrrolo[3,2-b]pyrrole-1-carbonyl]-butyl}-benzamide] it is above 5.30; for `CC(C)C[C@H](NC(=O)c1ccc(N(C)C)cc1)C(=O)N1CC[C@@H]2[C@H]1C(=O)CN2C(=O)CN1CCNCC1` [Example 241, (3aR,6aS)-4-Dimethylamino-N-{(1S)-3-methyl-1-[6-oxo-4-(2-piperazin-1-yl-acetyl)-hexahydro-pyrrolo[3,2-b]pyrrole-1-carbonyl]-butyl}-benzamide] it is above 5.30.
For `O=C(N[C@@H](Cc1cc(F)cc(F)c1)C(=O)N1CC[C@@H]2[C@H]1C(=O)CN2C(=O)c1ccccc1)c1cccc(Br)c1` [Example 343, (3aR,6aS)-N-[(1S)-2-(4-Benzoyl-6-oxo-hexahydro-pyrrolo[3,2-b]pyrrol-1-yl)-1-(3,5-difluoro-benzyl)-2-oxo-ethyl]-3-bromo-benzamide] the value was above 5.30.
Consider `CC(C)C[C@H](NC(=O)c1ccc(N(C)C)cc1)C(=O)N1CC[C@@H]2[C@H]1C(=O)CN2C(=O)CC1CCNCC1` [Example 240], for which the pKi was above 5.30.
In the case of `O=C(N[C@@H](CSCc1ccccc1)C(=O)N1CC[C@@H]2[C@H]1C(=O)CN2C(=O)c1ccccc1)c1cccc(Oc2ccccc2)c1` [Example 260, (3aR,6aS)-N-[(1R)-2-(4-Benzoyl-6-oxo-hexahydro-pyrrolo[3,2-b]pyrrol-1-yl)-1-benzylsulfanylmethyl-2-oxo-ethyl]-3-phenoxy-benzamide], the pKi was above 5.30.
The figure for `CC(C)C[C@H](NC(=O)c1ccc(N(C)C)cc1)C(=O)N1CC[C@@H]2[C@H]1C(=O)CN2C(=O)C1CCCNC1` (stereo partly drawn) [Example 140, (3aR,6aS)-4-Dimethylamino-N-{(1S)-3-methyl-1-[6-oxo-4-(piperidine-3-carbonyl)-hexahydro-pyrrolo[3,2-b]pyrrole-1-carbonyl]-butyl}-benzamide] is above 5.30.
For `CC(C)C[C@H](NC(=O)c1ccc(N(C)C)cc1)C(=O)N1CC[C@@H]2[C@H]1C(=O)CN2C(=O)[C@@H]1C[C@@H](O)CN1` [Example 218, (3aR,6aS)-4-Dimethylamino-N-{(1S)-1-[4-((2S,4R)-4-hydroxy-pyrrolidine-2-carbonyl)-6-oxo-hexahydro-pyrrolo[3,2-b]pyrrole-1-carbonyl]-3-methyl-butyl}-benzamide], the negative logarithm of the Ki (pKi) was above 5.30.
For `CC(C)C[C@H](NC(=O)c1ccc(N(C)C)cc1)C(=O)N1CC[C@@H]2[C@H]1C(=O)CN2C(=O)c1ccc[n+]([O-])c1` [Example 81, (3aR,6aS)-4-Dimethylamino-N-{(1S)-3-methyl-1-[6-oxo-4-(1-oxy-pyridine-3-carbonyl)-hexahydro-pyrrolo[3,2-b]pyrrole-1-carbonyl]-butyl}-benzamide] the value was above 5.30; for `CC(C)C[C@H](NC(=O)c1ccc(N(C)C)cc1)C(=O)N1CC[C@@H]2[C@H]1C(=O)CN2C(=O)c1ccccc1OC(F)(F)F` [Example 168, (3aR,6aS)-4-Dimethylamino-N-{(1S)-3-methyl-1-[6-oxo-4-(2-trifluoromethoxy-benzoyl)-hexahydro-pyrrolo[3,2-b]pyrrole-1-carbonyl]-butyl}-benzamide], above 5.30.
For the molecule `CC(C)C[C@H](NC(=O)c1ccc(C(C)(C)C)cc1)C(=O)N1CC[C@@H]2[C@H]1C(=O)CN2C(=O)c1cccc2ccccc12` [Example 33, (3aR,6aS)-tert-Butyl-N-{(1)-3-methyl-1-[4-(naphthalene-1-carbonyl)-6-oxo-hexahydro-pyrrolo[3,2-b]pyrrole-1-carbonyl-]-butyl}-benzamide], the pKi is above 5.30.
The figure for `O=C(N[C@@H](Cc1ccc(O)cc1)C(=O)N1CC[C@@H]2[C@H]1C(=O)CN2C(=O)c1ccc2ccccc2c1)c1cccc2ccccc12` [Example 302, (3aR,6aS)-Naphthalene-1-carboxylic acid {(1S)-1-(4-hydroxy-benzyl)-2-[4-(naphthalene-2-carbonyl)-6-oxo-hexahydro-pyrrolo[3,2-b]pyrrol-1-yl]-2-oxo-ethyl}-amide] is above 5.30; for `CC(C)C[C@H](NC(=O)c1ccc(N(C)C)cc1)C(=O)N1CC[C@@H]2[C@H]1C(=O)CN2C(=O)[C@H](C)N` [Example 162, (3aR,6aS)-N-{(1S)-1-[4-((2S)-2-Amino-propionyl)-6-oxo-hexahydro-pyrrolo[3,2-b]pyrrole-1-carbonyl]-3-methyl-butyl}-4-dimethylamino-benzamide] it is above 5.30; for `CC(C)C[C@H](NC(=O)c1ccc(N(C)C)cc1)C(=O)N1CC[C@@H]2[C@H]1C(=O)CN2C(=O)C1CCCO1` (stereo partly drawn) [Example 238, (3aR,6aS)-4-Dimethylamino-N-{(1S)-3-methyl-1-[6-oxo-4-(tetrahydro-furan-2-carbonyl)-hexahydro-pyrrolo[3,2-b]pyrrole-1-carbonyl]-butyl}-benzamide] it is above 5.30.
